The values below come from US5656629A, “6-substituted pyrazolo (3,4-d)pyrimidin-4-ones and compositions and methods of use thereof” (Sanofi Winthrop, Inc., priority 1995, dated 1997).

The target of this assay is T1, cGMP-PDE V (Homo sapiens, UniProt O76074).
T1 construct: isolated from cardiovascular tissues (heart and aorta); from tissue; host or cells: cardiovascular tissues (heart and aorta)
As to the kind of experiment: cGMP-PDE V inhibition (isozyme isolated from cardiovascular tissue). The assay is classed as biochemical, various animal species and man. The text has this: The cGMP-PDE and other PDE isozymes were isolated from cardiovascular tissues (heart and aorta) of various animal species and man by anion-exchange and affinity chromatography as described by Silver et al., Sec. Messeng. Phos. […] Cyclic Nucleotide Res. 10:69-92.

Where [1] appears, read: read-out: Percent Inhibition cGMP-PDE V.
[2] abbreviates: 1 μM, read-out: Percent Inhibition cGMP-PDE V.

With “1-cyclopentyl-3-ethyl-6-[3,5-dimethylamino-4-hydroxyphenylmethyl]pyrazolo[3,4-d]pyrimidin-4-one [Example 14]”, the “Percent Inhibition cGMP-PDE V” value by setting is: (1 μM) 28%; (10 μM) 77%.

For orientation: IC50 means the midpoint of a concentration-inhibition curve. The compound `CCc1[nH]n(C2CCCC2)c2nc(Cc3ccc(OC)c(OC)c3)nc(=O)c1-2` [3(b), 1-cyclopentyl-3-ethyl-6-(3,4-dimethoxyphenylmethyl)-pyrazolo[3,4-d)pyrimidin-4-one] displayed an IC50 of 0.022 µM. The same measure, in the same setting: under `CCc1[nH]n(C2CCCC2)c2nc(Cc3ccncc3)nc(=O)c1-2` [4(b), 1-cyclopentyl-3-ethyl-6-(4-pyridinylmethyl)pyrazolo[3,4-d]pyrimidin-4-one] stands 0.65 µM. On the same count and under the same terms, with `CCc1[nH]n(C2CCCC2)c2nc(Cc3ccc(OCC(=O)O)cc3)nc(=O)c1-2` [8(b), 1-cyclopentyl-3-ethyl-6-[4-(carboxymethoxy)phenylmethyl]pyrazolo[3,4-d]pyrimidin-4-one] the figure was 1.2 µM. Usually inhibition stands for the change of the read-out against control, counted positive when it falls. With `CCc1nn(C2CCCC2)c2nc(Cn3cnc4ccccc43)[nH]c(=O)c12` [12(b), 1-cyclopentyl-3-ethyl-6-[1-benzimidazolylmethyl]pyrazolo[3,4-d]pyrimidin-4-one], the inhibition at 0.1 µM under setting [1] was 17%. Also, the inhibition at 1 µM under setting [2] is 39%. Consider `CCc1[nH]n(C2CCCC2)c2nc(CN3CCc4ccccc4C3)nc(=O)c1-2` [15(c), 1-cyclopentyl-3-ethyl-6-(1,2,3,4-tetrahydro-2-isoquinolinylmethyl)pyrazolo[3,4-d]pyrimidin-4-one], for which the IC50 was 1.77 µM.

As to `CCc1nn(C2CCCC2)c2nc(CN3CCCc4ccccc43)[nH]c(=O)c12` [16(b), 1-cyclopentyl-3-ethyl-6-(1,2,3,4-tetrahydro-1-quinolinylmethyl)pyrazolo[3,4-d]pyrimidin-4-one], under setting [2], the inhibition at 1 µM was determined as 32%. Also, the inhibition at 10 µM (10 μM, read-out: Percent Inhibition cGMP-PDE V) was 90%.

In the case of `CCc1nn(C2CCCC2)c2nc(Cn3ccnc3)[nH]c(=O)c12` [18(b), 1-cyclopentyl-3-ethyl-6-(1-imidazolylmethyl)pyrazolo[3,4-d]pyrimidin-4-one], the inhibition at 1 µM under setting [2] is 33%. `CCc1nn(C2CCCC2)c2nc(Cc3cccc(OCCN4CCOCC4)c3)[nH]c(=O)c12` [21(c), 1-cyclopentyl-3-ethyl-6-[3-[2-(4-morpholinyl)ethoxy]phenylmethyl]pyrazolo[3.4-d]pyrimidin-4-one]: the half-maximal inhibitory concentration (IC50) worked out at 0.42 µM.

For `CCc1nn(C2CCCC2)c2nc(Cn3cccn3)[nH]c(=O)c12` [23(b), 1-cyclopentyl-3-ethyl-6-(1-pyrazolylmethyl)pyrazolo[3,4-d]pyrimidin-4-one], the inhibition at 1 µM under setting [2] stood at 33%. As to `CCc1[nH]n(C2CCCC2)c2nc(Cc3ccccc3OC)nc(=O)c1-2` [27(b), 1-cyclopentyl-3-ethyl-6-(2-methoxyphenylmethyl)pyrazolo[3,4-d]pyrimidin-4-one], under setting [1], the inhibition at 0.1 µM amounted to 25%. The inhibition at 1 µM under setting [2] was 73%. On to `CCc1[nH]n(C2CCCC2)c2nc(Cc3c(C)noc3C)nc(=O)c1-2` [28(b), 1-cyclopentyl-3-ethyl-6-(3,5-dimethyl-4-isoxazolylmethyl)pyrazolo[3,4-d]pyrimidin-4-one], for which the inhibition at 1 µM under setting [2] came to 48%. `CCc1[nH]n(C2CCCC2)c2nc(Cc3ccc(-n4ccnc4)cc3)nc(=O)c1-2` [36(b), 1-cyclopentyl-3-ethyl-6-[4-(1-imidazolyl)phenylmethyl]pyrazolo[3,4-d]pyrimidin-4-one]: the inhibition at 0.1 µM under setting [1] was 26%. For the same compound, under setting [2], the inhibition at 1 µM worked out at 62%. The corresponding values for `Cc1[nH]n(C(C)(C)C)c2nc(Cc3ccccc3)nc(=O)c1-2` [37(d), 1-tert-butyl-3-methyl-6-(phenylmethyl)pyrazolo[3,4-d]pyrimidin-4-one] are 36% and 78%.

`CCc1[nH]n(C2CCCC2)c2nc(Nc3ccccc3)nc(=O)c1-2` [38(d), 1-cyclopentyl-3-ethyl-6-(phenylamino)pyrazolo[3,4-d]pyrimidin-4-one]: inhibition was half-maximal at 0.27 µM (IC50).
